Here are results for 22 compounds from US9066518B2, “Heterocyclic compounds as pesticides” (Bayer CropScience AG, priority 2009, dated 2015).

In series [1] the test system is green peach aphid (Myzus persicae). In words: Myzus test (spray treatment). It is filed as in vivo. The conditions noted are these: foliar, 144 h, read-out: activity (effect in %, aphids killed). Here is the method: (§1) Solvents: 78 parts by weight of acetone
• 1.5 parts by weight of dimethylformamide Emulsifier 0.5 part by weight of alkylaryl polyglycol ether
To produce a suitable preparation of active compound, 1 part by weight of active compound is mixed with the stated amounts of solvents and emulsifier, and the concentrate is diluted with emulsifier-containing water to the desired concentration. Discs of leaves of Chinese cabbage (Brassica pekinensis) which are infested by all stages of the green peach aphid (Myzus persicae) are sprayed with an active compound preparation of the desired concentration.
After 6 days, the effect in % is determined. 100% means that all aphids have been killed; 0% means that none of the aphids has been killed.

A short description of series [2]: logP determination (neutral / HCOOH). To be noted: HCOOH; for chromatographic logP: HCOOH (formic acid), logP (HCOOH).
Series [3] relates to larvae of the mustard beetle (Phaedon cochleariae). Briefly: Phaedon test (spray treatment). The format is in vivo. To be noted: application rate 500 g/ha; after 7 days; Chinese cabbage leaf discs. From the text:
Solvents: 78 parts by weight of acetone • • 1.5 parts by weight of dimethylformamide Emulsifier: 0.5 part by weight of alkylaryl polyglycol ether […] Discs of leaves of Chinese cabbage (Brassica pekinensis) are sprayed with an active compound preparation of the desired concentration and, after drying, populated with larvae of the mustard beetle (Phaedon cochleariae).

The subject of series [4] is caterpillars of the armyworm (Spodoptera frugiperda). Briefly: Spodoptera frugiperda test (spray treatment). The format is in vivo. To be noted: application rate 500 g/ha; after 7 days; maize leaf discs. As for the experimental part:
as §1
(§2) • 1.5 parts by weight of dimethylformamide Emulsifier: 0.5 part by weight of alkylaryl polyglycol ether
To produce a suitable preparation of active compound, 1 part by weight of active compound is mixed with the stated amounts of solvents and emulsifier, and the concentrate is diluted with emulsifier-containing water to the desired concentration. Discs of maize leaves (Zea mays) are sprayed with an active compound preparation of the desired concentration and, after drying, populated with caterpillars of the armyworm (Spodoptera frugiperda).
After 7 days, the effect in % is determined. 100% means that all caterpillars have been killed; 0% means that none of the caterpillars has been killed.

Series [5] deals with greenhouse red spider mite (Tetranychus urticae). In words: Tetranychus test; OP-resistant (spray treatment). It is filed as in vivo. The conditions noted are these: application rate 500 g/ha, after 6 days, bean leaf discs. As for the experimental part: as §1, §2
To produce a suitable preparation of active compound, 1 part by weight of active compound is mixed with the stated amounts of solvents and emulsifier, and the concentrate is diluted with emulsifier-containing water to the desired concentration. Discs of bean leaves (Phaseolus vulgaris) which are infested by all stages of the greenhouse red spider mite (Tetranychus urticae) are sprayed with an active compound preparation of the desired concentration.
After 6 days, the effect in % is determined. 100% means that all spider mites have been killed; 0% means that none of the spider mites has been killed.

[6] abbreviates: application rate 500 g/ha, after 6 days, Chinese cabbage leaf discs.

SMILES strings stand for the structures. Like-named read-outs stand apart in the source and are kept apart here.

Broadly, the chromatographic logP is lipophilicity estimated from chromatographic retention. A high value points to higher lipophilicity. For the compound `Cn1c(C(F)(F)F)nn(-c2cccc(-c3cnn(-c4cccnc4)c3)n2)c1=O` [Example 16], the pest or weed control at 500 g/ha in series [1] (setting [6]) amounted to 90%. This compound returned a chromatographic logP in series [2] of 2.1. Moreover, in series [3], the “activity (effect in %, beetle larvae killed)” value is reported as 100%. The “activity (effect in %, caterpillars killed)” value in series [4] worked out at 100%.

In general, logP refers to the decadic logarithm of the partition coefficient of the neutral form, usually between octanol and water. A high value points to higher lipophilicity. In the case of `c1cnc(-c2cccc(-c3cnn(-c4cccnc4)c3)n2)nc1` [Example 1, 2-[6-(1-Pyridin-3-yl-1H-pyrazol-4-yl)pyridin-2-yl]pyrimidine], the pest or weed control at 500 g/ha in series [1] (in Brassica rapa) is 100%. In “physchem”, this compound registered a chromatographic logP of 1.36 and a logP of 1.52.

For the compound `FC(F)(F)c1ccc(-c2cnn(-c3cccnc3)c2)nc1` [Example 22], the pest or weed control at 500 g/ha in series [1] (setting [6]) was determined as 100%. Besides, the chromatographic logP in series [2] is 2.38. For the same compound, the “activity (effect in %, beetle larvae killed)” value in series [3] is reported as 100%.

`COC(=O)CN(C)c1cccc(-c2cnn(-c3cccnc3)c2)n1` [Example 32]: the pest or weed control at 500 g/ha in series [1] (setting [6]) worked out at 100%. In addition, in series [2], the chromatographic logP came to 2.18. Further, the “activity (effect in %, caterpillars killed)” value in series [4] was found to be 100%.

Turning to `c1cncc(-n2cc(-c3cccc(-c4ncon4)n3)cn2)c1` [Example 5, 2-[1,2,4]Oxadiazol-3-yl-6-(1-pyridin-3-yl-1H-pyrazol-4-yl)pyridine], in series [1] (in Brassica rapa), the pest or weed control at 500 g/ha was 100%. This compound also registered a logP in the series “physchem” of 1.54.

For the compound `c1cnc(-c2cccc(-c3cnn(-c4cncnc4)c3)n2)nc1` [Example 34], the pest or weed control at 500 g/ha in series [1] (setting [6]) is 100%. In addition, in series [2], the chromatographic logP turned out to be 1.17. In addition, the “activity (effect in %, spider mites killed)” value in series [5] came to 90%.

Take `c1cncc(-n2cc(-c3cccc(-n4nccn4)n3)cn2)c1` [Example 54]: the pest or weed control at 500 g/ha in series [1] (setting [6]) was 100%. This compound also registered a chromatographic logP in series [2] of 1.63.

Turning to `CC(F)(F)c1ccc(-c2cnn(-c3cccnc3)c2)nc1` [Example 40], in series [1] (setting [6]), the pest or weed control at 500 g/ha amounted to 90%. The compound also yielded a chromatographic logP in series [2] of 2.04.

For the compound `c1ccc(-c2cnn(-c3cccnc3)c2)nc1` [Example 12], the pest or weed control at 500 g/ha in series [1] (setting [6]) turned out to be 100%. This compound also displayed a chromatographic logP in series [2] of 0.81.

`c1cncc(-n2cc(-c3cccc(-c4nccnn4)n3)cn2)c1` [Example 7, 3-[6-(1-Pyridin-3-yl-1H-pyrazol-4-yl)pyridin-2-yl]-[1,2,4]triazine]: the pest or weed control at 500 g/ha in series [1] (in Brassica rapa) is 100%. The compound also returned a lipophilicity (logP) in “physchem” of 1.32.

Regarding `COc1cc(OC)nc(-c2nccc(-c3cnn(-c4cccnc4)c3)n2)n1` [Example 44], the pest or weed control at 500 g/ha in series [1] (setting [6]) was determined as 100%. In addition, the chromatographic logP in series [2] is 1.56.

Regarding `FC(F)(F)c1ccn(-c2cnn(-c3cccnc3)c2)n1` [Example 3, 1′-Pyridin-3-yl-3-trifluoromethyl-1′H-[1,4′]bipyrazolyl], in series [1] (setting [6]), the pest or weed control at 500 g/ha was 100%. Further, in series [2], the chromatographic logP is 2.27.

For the compound `N#Cc1cncc(-n2cc(-c3cccc(-c4ncccn4)n3)cn2)c1` [Example 88], the pest or weed control at 500 g/ha in series [1] (setting [6]) worked out at 100%. Also, the chromatographic logP in series [2] is 1.91.

Turning to `c1cnc(-n2ccc(-c3cnn(-c4cccnc4)c3)n2)nc1` [Example 33], in series [1] (setting [6]), the pest or weed control at 500 g/ha amounted to 100%. Also, the chromatographic logP in series [2] was 1.33.

Consider `c1cncc(-n2cc(-c3cc[nH]n3)cn2)c1` [Example 98, 1′-(Pyridin-3-yl)-1H,1′H-3,4′-bipyrazole], for which the pest or weed control at 500 g/ha in series [1] (setting [6]) worked out at 100%. In series [2], the “logP (HCOOH)” value came out at 0.78 and the chromatographic logP came to 0.79.

`Brc1cccc(-c2cnn(-c3cccnc3)c2)n1` [Example 24]: in series [1] (setting [6]), the pest or weed control at 500 g/ha came to 100%. In series [2], the chromatographic logP stood at 2.18.

`FC(F)(F)c1ccc(-c2cnn(-c3cccnc3)c2)cc1` [Example 50]: the pest or weed control at 500 g/ha in series [1] (setting [6]) was 90%. In series [2], the chromatographic logP is 2.98.

`ClC1(c2cccc(-c3cnn(-c4cccnc4)c3)n2)CC1` [Example 65]: the pest or weed control at 500 g/ha in series [1] (setting [6]) was found to be 90%. The compound also had a chromatographic logP in series [2] of 3.22.

In the case of `Fc1cccc(-c2cnn(-c3cccnc3)c2)n1` [Example 105], the pest or weed control at 500 g/ha in series [1] (setting [6]) was 80%. The compound further showed a chromatographic logP in series [2] of 1.77.

With `O=C(NCC(F)(F)F)c1cccc(-c2cnn(-c3cccnc3)c2)n1` [Example 57], the pest or weed control at 500 g/ha in series [1] (setting [6]) came to 100%. Moreover, the chromatographic logP in series [2] is 2.12.

As to `COC(=N)c1cccc(-c2cnn(-c3cccnc3)c2)n1` [Example 91], in series [1] (setting [6]), the pest or weed control at 500 g/ha amounted to 100%. The compound also had a chromatographic logP in series [2] of 0.84.

`Clc1cccnc1-n1ccc(-c2cnn(-c3cccnc3)c2)n1` [Example 42]: the pest or weed control at 500 g/ha in series [1] (setting [6]) was 100%. This compound had a chromatographic logP in series [2] of 1.81.
